Measurements from paper PMC2033597, “The Arg-Gly-Asp-containing peptide, rhodostomin, inhibits in vitro cell adhesion to extracellular matrices and platelet aggregation caused by saos-2 human osteosarcoma cells” (British Journal of Cancer, 1995).
Read-outs that look alike come from different tables or passages of the source.

How the values were obtained:
[1] = tested on: Saos-2 tumour cell-induced platelet aggregation in heparinised human platelet-rich plasma; type: cell-based; settings: for IC50: heparinised human PRP preincubated with peptide at 37C for 2 min, then Saos-2 cells, n = 6, read-out: IC50 for inhibition of Saos-2 TCIPA
Excerpt: Brils JownW d Canmer (15) 71, 265-270 ? 1995 S9okon Press Al rghts reserved 0007-0920/95 $9.00 V The Arg-Gly-Asp-containing peptide, rhodostomin, inhibits in vitro cell adhesion to extracellular matrices and platelet aggregation caused by Saos-2 human osteosarcoma cells H-S Chiang', R-S Yang2 and T-F Huang' 'Pharmacological Institute and 'Department of Orthopaedics, College of Medicine, National Taiwan UniversitY, Taipei, Taiwan. Sumary Saos-2 cells, derived from a primary human osteosarcoma, caused dose-dependent platelet aggrega- tion in heparinised human platelet-rich plasma. […] The cell suspension shortened the plasma recalcification times of normal, factor VIII-deficient and factor IX-deficient human plasmas in a dose- dependent manner. […] Moreover, a monoclonal antibody (MAb) against human tissue factor completely abolished TCIPA. […] Keywords: osteosarcoma; platelet aggregation; tissue factor: integrin; extracellular matrix: Arg-Gly-Asp- containing peptide The formation of a metastatic lesion is the result of a com- plex series of events called the 'metastatic cascade'. Following intravasation, circulating tumour cells interact with a variety of host cells such as effectors of the cellular immune res- ponses, endothelial cells and platelets. The interaction of tumour cells and host platelets may promote the metastatic process (Honn et al., 1992). Indeed, there is evidence that the incidence of lymph node metastasis caused by ten cell lines, from rat renal carcinoma, in vivo correlates well with their ability to induce platelet aggregation in vitro (Pearlstein et al., 1980). Platelets may enhance tumour cell adhesion to endothelial cells and subendothelial surfaces during the haematogenous metastasis process. The cell-cell or cell-extracellular matrix (ECM) interactions of both normal and tumour cells have been proven to be mediated by a variety of plasma memb- rane receptors including the integrin family (Hynes et al., 1987). Integrins are transmembrane proteins which link the ECM with the cell cytoskeleton. Such linkage enables cellular attachment to substrata and forms focal adhesion plaques in distinct plasma membrane regions which establish contact with the matrix (Grunicke, 1990). […] Purified components from snake venoms have been widely studied and found to affect platelet function, including trigramin-like anti-platelet peptides (Huang et al., 1987a, 1991a,b; Shebuski et al., 1989; Rucinski et al., 1990). Trigra- min, an RGD-containing peptide purified from venom of the Trimeresurus gramineus snake, is a specific antagonist of platelet membrane […] (Huang et al., 1987a, 1989). […] These peptides all contain the RGD sequence, are rich in cysteine and bind with high affinity to the surface of platelets. The in vitro metastatic characterisation of osteosarcoma is not yet well understood. In the present study, we examined in vitro the TCIPA caused by Saos-2 human osteosarcoma cells. We probed Saos-2 TCIPA with a variety of inhibitors and monoclonal antibodies in order to characterise fully the mechanism of this phenomenon. […] Materals and metbods Materials Saos-2 human osteosarcoma cells were obtained from ATCC (American Type Culture Collection) Laboratory. Crude venom of Agkistrodon rhodostoma (or Calloselasma rhodos- toma) was purchased from Latoxan (Rosans, France) and stored at -20?C. Rhodostomin was purified from venom of A. rhodostoma as previously described (Huang et al., 1989, 1990). GRGDS was purchased from Peninsula Laboratories, CA, USA. Gly-Arg-Gly-Glu-Ser (GRGES) was synthesised by the Biochemical Institute, College of Medicine, National Taiwan University. Apyrase (grade III), heparin, hirudin (grade IV from leeches), fibronectin (from bovine plasma), vitronectin (from human plasma), laminin (from basement membrane of mouse sarcoma), collagen type I (from calf skin) and type IV were obtained from Sigma (St Louis, MO, USA). Tissue thromboplastin reagent was Simplastin Excel standard (Organon Teknika, NC, USA). […]

[2] = tested on: Saos-2 cell adhesion to RGD-dependent ECM; assay: Saos-2 cell adhesion to RGD-dependent ECM (overall); type: cell-based, human; settings: fibronectin, vitronectin, collagen type I
Excerpt: Brils JownW d Canmer (15) 71, 265-270 ? 1995 S9okon Press Al rghts reserved 0007-0920/95 $9.00 V The Arg-Gly-Asp-containing peptide, rhodostomin, inhibits in vitro cell adhesion to extracellular matrices and platelet aggregation caused by Saos-2 human osteosarcoma cells H-S Chiang', R-S Yang2 and T-F Huang' 'Pharmacological Institute and 'Department of Orthopaedics, College of Medicine, National Taiwan UniversitY, Taipei, Taiwan. Sumary Saos-2 cells, derived from a primary human osteosarcoma, caused dose-dependent platelet aggrega- tion in heparinised human platelet-rich plasma. […] The cell suspension shortened the plasma recalcification times of normal, factor VIII-deficient and factor IX-deficient human plasmas in a dose- dependent manner. […] Moreover, a monoclonal antibody (MAb) against human tissue factor completely abolished TCIPA. […] Keywords: osteosarcoma; platelet aggregation; tissue factor: integrin; extracellular matrix: Arg-Gly-Asp- containing peptide The formation of a metastatic lesion is the result of a com- plex series of events called the 'metastatic cascade'. Following intravasation, circulating tumour cells interact with a variety of host cells such as effectors of the cellular immune res- ponses, endothelial cells and platelets. The interaction of tumour cells and host platelets may promote the metastatic process (Honn et al., 1992). […]

Gly-Arg-Gly-Glu-Ser [GRGES, peptide synthesised by the Biochemical Institute, National Taiwan University]
Inhibition of Saos-2 TCIPA ([1]; GRGES 1 mg ml-1, pretreatment of platelets): no significant effect

N=C(N)NCCC[C@H](NC(=O)CN)C(=O)NCC(=O)N[C@@H](CC(=O)O)C(=O)N[C@@H](CO)C(=O)O [GRGDS, Gly-Arg-Gly-Asp-Ser]
IC50 [1]: 560 µM

hirudin
Inhibition of Saos-2 TCIPA ([1]; hirudin 5 U ml-1, PRP preincubated at 37C for 2 min): completely inhibited

rhodostomin
IC50 [1]: 0.03 µM | Potency relative to GRGDS in inhibiting TCIPA, on a molar basis ([1]; ratio of IC50 values): about 18 000 fold | Inhibition of Saos-2 TCIPA ([1]; rhodostomin, pretreatment of platelets): complely inhibited | Potency relative to GRGDS in inhibiting Saos-2 cell adhesion to RGD-dependent ECM, on a molar basis [2]: ~1000 fold

apyrase
Inhibition of Saos-2 TCIPA ([1]; apyrase 0.5 U ml-1 final concentration in PRP, preincubated at 37C for 2 min): did not inhibit | Lag phase preceding TCIPA ([1]; apyrase 0.5 U ml-1 in PRP): prolonged

heparin
Lag phase preceding platelet aggregation ([1]; heparin raised from 1 to 6 units ml-1 (data not shown)): markedly prolonged
